The data set in a line: Pharmacokinetic study of Icotinib hydrochloride and Polymorph Form II of Icotinib, oral suspension, plasma by HPLC. Particulars: fasted male SD rats, oral suspension in sodium carboxymethyl cellulose, dose equivalent to 50 mg/kg Icotinib. It counts as in vivo. The source says:
Pharmacokinetic Study of Icotinib Hydrochloride and the Polymorph Form II of Icotinib
Drugs and reagents: the Icotinib hydrochloride used in this study was of Crystalline Form I disclosed by the WO2010/003313. Polymorph Form II of Icotinib and Icotinib hydrochloride were ground to fine particles. The material content (purity) was not less than 99.0%. Sodium carboxymethyl cellulose was medical supply graded.
Experimental animals: SD rats were divided to the Icotinib hydrochloride group and a Polymorph Form II group.
Pharmaceutical preparation: the amount of each compound was weighed and then sodium carboxymethyl cellulose was added to result in the test compound's concentration of 0.5%. The solid mixture was then added to prepare a suspension thereof at a final concentration of […] in water.
Administration and sample collection: each suspension was administered orally to fasted SD rats at a dose equivalent to 50 mg/kg Icotinib in a dose volume of 5 ml/kg. 0.4 ml of blood was collected in EDTA-K pre anticoagulant tubes at time intervals of 0.5, 1, 1.5, 2, 4, 6, 8 and 24 hours after the administration of the test compound, centrifuged at 3000 rpm for 10 minutes, and 120 μl plasma was collected and kept in cold storage.
Samples were analyzed by high performance liquid chromatography. The chromatographic conditions utilized C18-silane bonded silica as stationary phase, 0.02 mol/L of sodium dihydrogen phosphate in acetonitrile (40:60, using sodium hydroxide solution to adjust pH to 5.0) as the mobile phase and a detection wavelength of 334 nm.

Where a name gives a salt, the structure may show the parent alone. Read-outs that look alike come from different tables or passages of the source.

Turning to `C#Cc1cccc(Nc2ncnc3cc4c(cc23)OCCOCCOCCO4)c1` [Polymorph Form II of Icotinib, Icotinib], the “AUC(0-24)” value is 62400 ± 30100 ng·h/mL, the “AUC(0-∞)” value is 63000 ± 30000 ng·h/mL, the Cmax is 5800 ± 2600 ng/mL and the T1/2 is recorded as 3.5 ± 0.6 h. Also, the Tmax is reported as 4.5 ± 2.6 h.
For `C#Cc1cccc(Nc2ncnc3cc4c(cc23)OCCOCCOCCO4)c1` [Icotinib hydrochloride], where the note is “hydrochloride”, the Tmax stood at 1.3 ± 1.1 h. In addition, for the setting “male, SD, rat, po, 50 mg/kg”, the AUC(0-inf) came out at 39800 ± 28500 ng·h/mL and the half-life is 3.1 ± 1.4 h. Besides, the AUC(0-t) (male, SD, rat, po, 50 mg/kg, read-out: AUC(0-24)) is 39200 ± 27600 ng·h/mL. Besides, the Cmax (male, SD, rat, po, 50 mg/kg, read-out: Cmax) was determined as 4900 ± 2600 ng/mL.

Usually Cmax stands for the peak of the concentration-time curve. One may read the Tmax as the time at which the peak concentration occurs. For orientation: AUC(0-inf) means total exposure, with the tail of the curve extrapolated. The half-life is the time in which the quantity being followed falls by half.

Source of the values: patent US9611272B2, “Polymorphic forms of icotinib and uses thereof” (BETTA PHARMACEUTICALS CO., LTD, priority 2013, dated 2017).
